In article PMC7377239, “Cardiovascular Effects of Polychlorinated Biphenyls and Their Major Metabolites” (Environmental Health Perspectives, 2020):
Where a name gives a salt, the structure may show the parent alone. Read-outs that look alike come from different tables or passages of the source.

Tested on: iCell cardiomyocytes (human iPSC-derived cardiomyocytes)
Assay: High-content imaging of cytotoxicity and mitochondrial integrity in iPSC-CMs
Format: cell-based
Conditions: Homo sapiens, Cardiomyocyte; for viability at 0.01 µM / activity at 0.01 µM / viability at 0.1 µM / activity at 0.1 µM / viability at 1 µM / activity at 1 µM / viability at 10 µM / activity at 10 µM / viability at 100 µM / activity at 100 µM: 0.00 µM = 100.00; for viability at 0.1 µM / activity at 0.1 µM: 0.10 µM
In short: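 Readouts from high-content images were normalized to vehicle controls containing 0.5% vol/vol DMSO. They were fit to a four-parameter logistic model in R. Points of departure were set using a cutoff of one standard deviation across vehicle control means. Where no concentration–response was seen, the top tested concentration of 100μM was assigned as the no observable adverse effect level.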

[1] = 1.5 h, 90min, read-out: cm.cam.90min
[2] = 1.5 h, 90min, read-out: cm.mii.90min
[3] = 1.5 h, 90min, read-out: cm.mito.90min
[4] = 1.5 h, 90min, read-out: cm.tc.90min
[5] = 24 h, 24hrs, read-out: cm.cam.24hrs
[6] = 24 h, 24hrs, read-out: cm.mii.24hrs
[7] = 24 h, 24hrs, read-out: cm.mito.24hrs
[8] = 24 h, 24hrs, read-out: cm.tc.24hrs

O=S(=O)(O)Oc1cc(Cl)c(-c2cc(Cl)ccc2Cl)cc1Cl [4-yl PCB 52 sulfate]
viability at 0.01 µM [1]: 106%
activity at 0.01 µM [2]: 103%
activity at 0.01 µM [3]: 106%
viability at 0.01 µM [4]: 106%
viability at 0.1 µM [1]: 93.3%
activity at 0.1 µM [2]: 129%
activity at 0.1 µM [3]: 92.9%
viability at 0.1 µM [4]: 92.8%
viability at 1 µM [1]: 98.7%
activity at 1 µM [2]: 130%
activity at 1 µM [3]: 98.5%
viability at 1 µM [4]: 98.4%
viability at 10 µM [1]: 97.1%
activity at 10 µM [2]: 109%
activity at 10 µM [3]: 96.8%
viability at 10 µM [4]: 97.1%
viability at 100 µM [1]: 0.07%
activity at 100 µM [2]: 31.5%
activity at 100 µM [3]: 0.16%
viability at 100 µM [4]: 0.16%
minimal effective concentration (1.5 h, 90min, read-out: cm.cam.90min POD): 10.8 µM
minimal effective concentration (1.5 h, 90min, read-out: cm.mii.90min POD): 41.2 µM
minimal effective concentration (1.5 h, 90min, read-out: cm.mito.90min POD): 10.6 µM
minimal effective concentration (1.5 h, 90min, read-out: cm.tc.90min POD): 10.8 µM
viability at 0.01 µM [5]: 95.3%
activity at 0.01 µM [6]: 98.6%
activity at 0.01 µM [7]: 93.3%
viability at 0.01 µM [8]: 96.5%
viability at 0.1 µM [5]: 103%
activity at 0.1 µM [6]: 122%
activity at 0.1 µM [7]: 104%
viability at 0.1 µM [8]: 104%
viability at 1 µM [5]: 104%
activity at 1 µM [6]: 111%
activity at 1 µM [7]: 104%
viability at 1 µM [8]: 104%
viability at 10 µM [5]: 91.5%
activity at 10 µM [6]: 107%
activity at 10 µM [7]: 89.6%
viability at 10 µM [8]: 91.7%
viability at 100 µM [5]: 1.67%
activity at 100 µM [6]: 12.2%
activity at 100 µM [7]: 0.34%
viability at 100 µM [8]: 3.82%
minimal effective concentration (24 h, read-out: cm.cam.24hrs POD): 8.2 µM
minimal effective concentration (24 h, read-out: cm.mii.24hrs POD): 44.6 µM
minimal effective concentration (24 h, read-out: cm.mito.24hrs POD): 8.28 µM
minimal effective concentration (24 h, read-out: cm.tc.24hrs POD): 8.44 µM
